Experimental data taken from PMC4180634, “Pharmacokinetic Study and Bioavailability of a Novel Synthetic Trioxane Antimalarial Compound 97/63 in Rats” (Malaria Research and Treatment, 2014).
Where two headings read alike, the source gives them in different places.

Key:
[1] = log P; format: physicochemical
[2] = Single dose pharmacokinetic study after oral and intravenous administration in male rats (serum, HPLC-UV); format: in vivo, Sprague-Dawley rats; conditions: for half-life: two-compartment model
Excerpt: Male Sprague-Dawley (SD) rats weighing 250 ± 25 g for this study were obtained from institutional Laboratory Animal Division, CDRI, Lucknow, prior to study. Rats were given standard pellets for feeding and filtered water was given ad libitum and they were housed in well ventilated cages which were kept at room temperature on a regular 12-h light-dark cycle. Animals were kept in accordance with the guidelines of local ethical committee (Ethical approval 58/08/PKM/IAEC) for animal experimentation and principles of the guide for care and use of laboratory animals were followed (Department of Health Education and Welfare, number [NIH] 85-32). Oral and IV study was carried out in two sets (I and II). Each set contained two groups, that is, groups A and B. PK was carried out by dosing 97/63 in two groups (A and B) containing four rats in each group for sparse sampling. Young and healthy male SD rats weighing 250 ± 25 g (obtained from Laboratory Animal Division of CDRI) were housed in well ventilated cages and kept at room temperature 25 ± 2°C on a regular 12-h light-dark cycle. Animals were cared for in accordance with the principles of guide for care and use of laboratory animals. Animals in oral study group were fasted overnight to minimize the effects of food on pharmacokinetic profile of 97/63. Intravenous dose was administered as a single bolus injection through tail vein using a 26 G needle after dilating the tail vein [16]. The oral dose was administered using a 2 mL syringe and feeding needle. After intravenous and oral dose administration, rats were also monitored for physiological behavior. […] The intravenous formulation for single dose, 18 mg kg^−1, was a solution of 97/63 in DMSO. The oral formulation for single dose, 72 mg kg^−1, was also a solution of 97/63 in DMSO. The formulations were subjected to quality control (QC) checks to ensure their strength and content uniformity prior to use. The strength of formulation for intravenous and oral administration was 18 mg mL^−1 and 36 mg mL^−1. Compound 97/63 formulated in DMSO was administered to overnight fasted rats by oral and intravenous route. The dose volume factor for intravenous administration was 1 mL kg^−1, with 250 g rat receiving 0.25 mL, and for oral administration it was 2 mL kg^−1, with 250 g rat receiving 0.5 mL of formulation. Sparse sampling approach was used to collect blood samples by cardiac puncture. The total volume of blood withdrawn within 24 hours was less than 5% of blood volume. Blood samples were collected in glass tubes at 0.083, 0.25, 0.5, 0.75, 1, 1.5, 2, 3, 4, 6, 8, 10, 18, 24, 48, and 60 h after oral dose. Blood samples were stored at room temperature for 30 min to separate the serum. Serum was separated by centrifugation at 1500 ×g for 10 min and stored at –60°C until analysis. Analysis was performed within 30 days of sample collection. Curve fitting and estimation of pharmacokinetic parameters of 97/63 were carried out using WinNonlin (5.1) software program (Pharsight Corp, USA). The data were tested using Gauss-Newton algorithm, with noncompartment, one compartment, and two-compartment models after applying different weighting factor to the observed values of the concentrations. Decision on the suitability of a particular compartment model in explaining the data was undertaken based on the Akaike or Schwarz information criterion, correlation coefficient, and scatter of residuals.

[3] = tested on: malarial parasites; design: method as in earlier work; conditions: cited from earlier work
[4] = Stability studies of 97/63 in rat serum samples (long-term, freeze-thaw, dry residue, autoinjector); format: physicochemical
Method: Long-term stability of 97/63 was carried by preparing QC samples at low, medium, and high concentrations in three replicates for four different days and stored at -60°C. These sets of samples were analyzed after 0, 7, 15, and 30 days of storage and their concentrations were read from the respective calibration standard curve. The results are expressed as % deviation from 0 days concentration. F-T stability of 97/63 in serum samples was determined by preparing QC of strengths low (10 ng mL^-1), medium (100 ng mL^-1), and high (500 ng mL^-1) in three replicates for four different days. One set of three concentrations was analyzed on day of preparation (no F-T cycle) before storing the remaining sets at -60°C. Other sets were analyzed after 1, 2, and […] cycles. Thawing was achieved by keeping the sealed tubes at room temperatures for 30 min. The results are expressed as % deviation with initial concentration. The effect of storage on dry residue stability was determined at QC 10 ng mL^-1 (low), 100 ng mL^-1 (medium), and 500 ng mL^-1 (high) concentration levels. All the samples (three replicates of three concentrations × 4 sets) were prepared and dry residue was stored in glass tubes sealed with aluminum foil and then with parafilm. One set in triplicate was reconstituted on day 1 with mobile phase and analyzed on the same day (without storage). The remaining sets were similarly analyzed on days 2, 4, and 8 and results are expressed as % deviation. After sample preparation, stability of 97/63 in the autoinjector was evaluated for 4 h; the maximum duration for which the sample may have to wait in the autoinjector tray for pending analysis and results are expressed in % deviation with initial injection (t = 0 h).

[5] = tested on: malarial parasites; design: method as in earlier work; conditions: cited from earlier work; remark: listed apart in the source
[6] = Sprague-Dawley, rat, oral 72 mg kg^−1, male rats, serum

Q: Which logP [1] does the source give for `C=C(c1ccc(OC(C)(C)CO)cc1)C1COC2(OO1)C1CC3CC(C1)CC2C3` (stereo not shown) [97/63] here?
A: < 3.5

Q: What about the clearance ([2]; Sprague-Dawley, rat, serum, intravenous 18 mg kg^−1, male rats) of the same compound?
A: 148 mL/min/kg

Q: And the Vd ([2]; Sprague-Dawley, rat, serum, intravenous 18 mg kg^−1, male rats, read-out: Vd)?
A: 135 ± 11.2 L/kg

Q: What about the AUC(0-inf) ([2]; Sprague-Dawley, rat, intravenous 18 mg kg^−1, male rats, serum) of the same compound?
A: 2030 ± 574 ng·h/mL

Q: And the C0 ([2]; Sprague-Dawley, rat, intravenous 18 mg kg^−1, male rats, serum, mean ± SD, N = 4)?
A: 1800 ± 330 ng/mL

Q: And the AUC(0-inf) [2, 6]?
A: 1270 ± 27 ng·h/mL

Q: And the Tmax [2, 6]?
A: 1 ± 0.7 h

Q: What about the Cmax ([2]; Sprague-Dawley, rat, oral 72 mg kg^−1, male rats, serum, mean ± SD, N = 4) of the same compound?
A: 229 ± 64.3 ng/mL

Q: What about the “metabolite peaks in rat serum” value ([2]; after oral and intravenous dose, HPLC-UV) of the same compound?
A: No metabolite peaks were observed

Q: And the half-life ([2]; male, Sprague-Dawley, rat, serum, iv, 18 mg/kg, intravenous 18 mg kg^−1, male rats, read-out: T 1/2 (α) distribution half-life (converted))?
A: 0.45 ± 0.08 h

Q: What about the half-life ([2]; male, Sprague-Dawley, rat, serum, iv, 18 mg/kg, intravenous 18 mg kg^−1, male rats, read-out: T 1/2 (β) elimination half-life (converted)) of the same compound?
A: 10.6 ± 0.16 h

Q: What about the bioavailability ([2]; male, Sprague-Dawley, rat, serum, oral, 72 mg kg^−1, oral 72 mg kg^−1 vs intravenous 18 mg kg^−1, male rats, read-out: % bioavailability (absolute)) of the same compound?
A: ~16%

Q: What about the half-life ([2]; male, Sprague-Dawley, rat, serum, po, 72 mg/kg, oral 72 mg kg^−1, male rats, read-out: T 1/2 (α) distribution half-life (converted)) of the same compound?
A: 0.84 ± 0.14 h

Q: What about the half-life ([2]; male, Sprague-Dawley, rat, serum, po, 72 mg/kg, oral 72 mg kg^−1, male rats, read-out: T 1/2 (β) elimination half-life (converted)) of the same compound?
A: 10.6 ± 0.2 h

Q: What about the Cl ([2]; oral 72 mg kg^−1, male rats) of the same compound?
A: 187 ± 1.2 mL/min/kg

Q: What about the Vd ([2]; oral 72 mg kg^−1, male rats) of the same compound?
A: 172.31 ± 28.59 L/kg

Q: And the “absorption rate constant (K a)” value ([2]; oral 72 mg kg^−1, male rats)?
A: 0.82 h⁻¹

Q: What about the “clinical symptoms after dosing” value ([2]; oral 72 mg kg^−1 and intravenous 18 mg kg^−1, male rats, sampling period) of the same compound?
A: No abnormal clinical symptoms

Q: What about the “% bioavailability (absolute)” value ([2]; oral 72 mg kg^−1 vs intravenous 18 mg kg^−1, male rats) of the same compound?
A: 15.66%

Q: And the “potency against malarial parasites in vivo” value [3]?
A: good potency

Q: And the “reinjection (autoinjector) stability, deviation” value ([4]; 4 h gap, samples stored at 4°C)?
A: less than 10%

Q: And the “dry residue stability after extraction” value ([4]; 8 days stored at −60°C)?
A: stable

Q: What about the “long-term stability in serum” value ([4]; 30 days, normal serum stored at −60°C) of the same compound?
A: stable

Q: What about the “freeze-thaw stability in serum” value ([4]; three F-T cycles) of the same compound?
A: stable

Q: And the “potency against malarial parasites in vitro” value [5]?
A: good potency
